{
  "source": "patent US12467038B2",
  "about": "“Methods of culturing human pluripotent cells” (Hadasit Medical Research Services and Development Ltd., priority 2019, dated 2025)",
  "tested_on": "hPSCs",
  "experiment": "Undifferentiated propagation and PGC differentiation of hPSCs on laminin",
  "type": "cell-based, human",
  "settings": "HES-2 hPSCs",
  "procedure": "LN-hPSCs were cultured on mouse LN111, 3-D Culture Matrix Laminin I (CULTREX, TREVIGEN, #3446-005-01, Gaithersburg, Md., USA). 0.175 ml diluted LN111 (1:14 to a coating concentration of 0.43 mg/ml) was used to coat a well of a 6-well culture dish, leaving a margin of 2-3 mm at the well edge (a final concentration of ˜8 microgram/cm^2). The coated dishes were incubated from 4 hours to 4 days, at 37° C., and washed with PBS before use. LN-hPSCs were cultured in a medium composed of DMEM/F12, B27 supplement (1:50), N2 supplement (1:100), 2 mM L-glutamine, 50 units/ml penicillin, 50 μg/ml streptomycin (all from Invitrogen), and supplemented daily with 20 ng/ml FGF2 (Peprotech). Cells were passaged every 5-6 days using 1.5 mg/ml collagenase type IV (Invitrogen). 5 μM ROCK inhibitor (Y-27632, Peprotech) was added for the first day after passaging.\nhPSCs were cultured on human recombinant LN521 (BIOLAMINA, Sundbyberg, Sweden). Coating of culture dishes with hrLN521 was performed according to the manufacturer's instructions (Coating concentration ˜0.45 microgram/cm^2). Cells were cultured in the same medium used for culturing LN-hPSCs, and passaged with collagenase type IV.\nPGC differentiation of hPSCs in suspension—LN-hPSCs and hPSCs cultured on hrLN-521 were dissociated into a single-cell suspension using TrypLE Select Enzyme (Invitrogen). Primed hPSCs were first dissociated from the MEF feeders by treatment with collagenase type IV, followed by dissociation into single cells by TrypLE Select Enzyme. 2000-3000 cells were seeded into a microwell of AggreWell™800 24-well plate (STEMCELL Technologies), and cultured as EBs in suspension, in PGCLC differentiation medium as described elsewhere (Irie et al., 2015).",
  "data": [
    {"substance": "LN111: mouse LN111, 3-D Culture Matrix Laminin I (CULTREX, TREVIGEN), coating of culture dishes", "values": [
      {"measurement": "competence to initiate germ cell specification", "value": "competent to initiate germ cell specification"}
    ]}
  ]
}
